Target: T1, GAL4-ER (LBD)-VP16 fusion protein (Homo sapiens, UniProt P03372, G400V)
T1 construct: was used to replace the ER of 281-595; expressed in transfected cells; host or cells: 293T cells (A1, A2, A3, A5)
T1 sequence (P03372 281-595 G400V): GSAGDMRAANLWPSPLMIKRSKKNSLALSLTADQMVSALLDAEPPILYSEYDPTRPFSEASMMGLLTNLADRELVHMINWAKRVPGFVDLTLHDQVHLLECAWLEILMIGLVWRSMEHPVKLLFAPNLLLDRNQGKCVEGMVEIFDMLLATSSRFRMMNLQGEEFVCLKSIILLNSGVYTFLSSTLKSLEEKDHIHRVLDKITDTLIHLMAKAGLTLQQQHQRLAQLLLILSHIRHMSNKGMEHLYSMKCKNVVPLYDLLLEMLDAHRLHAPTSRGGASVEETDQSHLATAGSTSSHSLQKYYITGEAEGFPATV
Test: ER-ligand induced transactivation system (GAL4-ER(LBD)-VP16 activator + GAL4-E4-firefly luciferase reporter) in transiently co-transfected 293T cells
Format: cell-based
Description: Cell Transfection and Luciferase Assay. […] Volumes of Lipofectamine were as recommended by the manufacturer.

Row | SMILES | fold luciferase signal in comparison to carrier control (1 μM ligand) | transactivation signal relative to carrier control (in words) (1 μM)
1 | C[C@]12CC[C@@H]3c4ccc(O)cc4C[C@@H](CCCCCCCCC[S+]([O-])CCCC(F)(F)C(F)(F)F)[C@H]3[C@@H]1CC[C@@H]2O (some centres unmarked) [ICI] | 300±80 fold | 
2 | N.N.[Cl][Pt][Cl] [non-ligand anticancer drug, cisplatinum] |  | not significantly different from the cells exposed to carrier control
